What all share (assay): NCI anticancer screen, dose series, 48 h
Test [1] has as its system TK-10 renal.
The subject of test [2] is SW-620 colon.
The test system of test [3] is HOP-92 NSCLC.
For test [4], the system named is UACC-257 melanoma.
Test [5] has as its system U251 CNS.
Test [6] deals with OVCAR-3 ovarian.
Test [7] has as its system MOLT-4 leukemia.
For test [8], the system named is SR leukemia.
Test [9] concerns HL-60(TB) leukemia.
Test [10] has as its system NCI-H460 lung.
Test [11] has as its system UO-31 renal.

Molecules are shown by their SMILES.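 Test compounds were applied to cells in 96-well plates for 48 hours at 5 doses. The concentration for full growth arrest is given as TGI.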

With `CC1(C)OCC(C2OC(=O)C(OCc3ccccc3)=C2OCc2ccccc2)O1` (centres undefined), the TGI in test [1] is > 100 µM; in [2], > 100 µM; in test [3], > 100 µM; in test [4] it was 96.8 µM; in [5], > 100 µM; in test [6], > 100 µM. Besides, the TGI is 73.1 µM in test [7]; > 100 µM in test [8]; 52 µM in test [9]; > 100 µM in test [10]; > 100 µM in test [11].

As to `COc1ccc(CCN2CCOCC2)cc1`, the TGI in test [1], in test [2], in test [3], in test [4], in test [5] and in [6] was > 100 µM throughout. Moreover, the TGI in test [7], in test [8], in test [9], in test [10] and in test [11] was > 100 µM throughout.

`O=C(Nc1ccc(Cl)cc1)c1cc(S(=O)(=O)NC2=NC(c3ccccc3)c3cc(Cl)ccc3N2)c(SSc2cc(Cl)c(C(=O)Nc3ccc(Cl)cc3)cc2S(=O)(=O)NC2=NC(c3ccccc3)c3cc(Cl)ccc3N2)cc1Cl` (centres undefined): the TGI in test [1], in test [2], in [3], in [4], in test [5] and in test [6] was > 100 µM in each case. The TGI in [7] was > 61.6 µM; in [8] it was 58.5 µM; in test [9], > 42.6 µM; in [10], > 100 µM; in test [11], > 100 µM.

As for `CCOc1ccc(-n2c(=O)n3c(Nc4ccc(Cl)cc4)nc4c(c(=O)n(C)c(=O)n4C)n3c2=O)cc1`, the TGI in test [1] is 66 µM; in [2], 99.2 µM; in test [3], 48.2 µM; in test [4], 60.4 µM; in [5], > 100 µM; in test [6], 52.5 µM. Moreover, the TGI in test [7] was 69.9 µM; in [8], 51.6 µM; in test [9] it was 51.7 µM; in test [10], 36.1 µM; in test [11] it was > 100 µM.

(Values after PubChem BioAssay (NCI).)
